Test results as given in patent publication US12318434B2, “Alkaline phosphate-based oncology treatments” (Theriva Biologics, Inc., priority 2019, dated 2025).
“Also recorded” adds a separate entry of the source.

Key:
[1] = test system: BALB/c mice inoculated with CT26 murine colorectal cancer cells; settings: for Duration of Diarrhea (score = 4): Days < 4: animal-days with stool score < 4; for Duration of Diarrhea (score = 4): Days = 4: animal-days with stool score = 4 (diarrhea); for Duration of Diarrhea (score = 4): % Days = 4: percentage of total animal-days with diarrhea (score=4)
Description: (§1) The study conducted included evaluation of the effects of administration of an IAP (“SYN-020” is synonymous with IAP and SYN BIAPII) along with a chemotherapeutic treatment with 5-fluorouracil (5-FU) in a murine model. […] Stool consistency was scored as the following: Score 0=Normal (no diarrhea); Score 2=Loose, formed stools; and Score 4=Diarrhea.
(§2) The second set of experiments included four groups of BALB/c mice inoculated with CT26 murine colorectal cancer cells into the right flank: (1) a vehicle control group of 30 male mice (“vehicle”); (2) a group of 30 male mice that received a daily treatment dose of 100 U/dose, 0.5 mg/kg of SYN BIAP II alone (“SYN BIAP II”); (3) a group of 30 male mice (“vehicle+5-FU”) that received an IP QD dose of 30 mg/kg of 5-FU for 5 consecutive days (days 0-4) and vehicle treatment; and (4) a group of 30 male mice (“SYN BIAPII+5-FU”) that received an IP QD dose of 30 mg/kg of 5-FU for 5 consecutive days (days 0-4) and an IAP (SYN-020) in a dose of 100 U/dose, 0.5 mg/kg, administered PO BID throughout the study (days −3 to +26).
Arrows indicate 5-FU administration days. […] The statistical significance of group differences in daily stool scores was assessed on each day by Mann-Whitney rank-sum analysis.
Table 1 below compares the duration of 5-FU-induced diarrhea by calculating the percentage of total animal-days with diarrhea (score=4). Groups were compared by chi-square test.

[2] = test system: BALB/c mice inoculated with CT26 murine colorectal cancer cells; assay: Second set of experiments: mean daily body weight change after 5-FU with or without IAP; assay type: in vivo; settings: 5-FU 30 mg/kg IP QD days 0-4
Procedure: as §2
Cumulative differences in body weight change between treatment groups through 50% common group survival (Day (−3)-16) were assessed by calculating the area under the curve (AUC) for each animal using the trapezoidal transformation.

[3] = test system: BALB/c mice inoculated with CT26 murine colorectal cancer cells; assay: First set of experiments: stool consistency and weight change after 5-FU with or without IAP; assay type: in vivo
Description: as §1
The first set of experiments included three groups of BALB/c mice inoculated with CT26 murine colorectal cancer cells into the right flank: (1) a no-treatment control group of 18 male mice (“untreated”); (2) a group of 18 male mice (“vehicle+5-FU”) that received an intraperitoneal (IP) QD (once daily) dose of 30 mg/kg of 5-FU for 5 consecutive days (days 0-4) and a vehicle was administered PO (orally) BID (twice a day) throughout the study (days −3 to +26); and (3) a group of 18 male mice (“SYN BIAPII+5-FU”) that received an IP QD dose of 30 mg/kg of 5-FU for 5 consecutive days (days 0-4) and an IAP (SYN-020) in a dose of 0.5 mg/kg, administered PO BID throughout the study (days −3 to +26).

[4] = 5-FU 30 mg/kg IP QD days 0-4, vehicle or SYN-020 0.5 mg/kg PO BID days -3 to +26

O=c1[nH]cc(F)c(=O)[nH]1 [vehicle + 5-FU, 5-fluorouracil]
day by which incidence of loose stools generally resolved ([1]; 5-FU 30 mg/kg IP QD days 0-4): ≤ 12 days | day on which incidence of loose stools or diarrhea was first observed ([1]; 5-FU 30 mg/kg IP QD days 0-4): 5 days | Duration of Diarrhea (score = 4): Days < 4 [1]: 245 | Duration of Diarrhea (score = 4): Days = 4 [1]: 43 | animal-days with diarrhea compared to untreated animals ([1]; mouse, in vivo): statistically significant cumulative increase | Duration of Diarrhea (score = 4): % Days = 4 [1]: 14.93% | day by which animals regained lost weight [2]: ~20 days | day on which chemotherapy-induced weight loss peaked [2]: 7 days | chemotherapy-induced weight loss at peak (percent change compared to body weight at Day 0) ([2]; Day 7): ~−20% | effect of 5-FU administration on stools and weight ([3]; 5-FU 30 mg/kg IP QD days 0-4, all of the treated animals): caused loose stools/diarrhea, as well as associated weight loss; also recorded: caused loose stools/diarrhea, and associated weight loss | day by which loose stools/diarrhea and associated weight loss recovered [3, 4]: ≤ 9 days | day on which loose stools/diarrhea and associated weight loss peaked [3, 4]: 6 days

B1: SYN BIAPII: intestinal alkaline phosphatase; BIAP II with stop codon and no leader sequence (SYN-020) (SEQ ID NO: 41) (protein)
chain: LIPAEEENPAFWNRQAAQALDVAKKLQPIQTAAKNVILFLGDGMGVPTVTATRILKGQMNGKLGPETPLAMDQFPYVALSKTYNVDRQVPDSAGTATAYLCGVKGNYRTIGVSAAARYNQCNTTRGNEVTSVINRAKKAGKAVGVVTTTRVQHASPAGAYAHTVNRNWYSDADLPADAQKNGCQDIAAQLVYNMDIDVILGGGRMYMFPEGTPDPEYPDDASVNGVRKDKQNLVQEWQAKHQGAQYVWNRTALLQAADDSSVTHLMGLFEPADMKYNVQQDHTKDPTLAEMTEAALQVLSRNPRGFYLFVEGGRIDHGHHDGKAYMALTEAIMFDNAIAKANELTSELDTLILVTADHSHVFSFGGYTLRGTSIFGLAPGKALDSKSYTSILYGNGPGYALGGGSRPDVNGSTSEEPSYRQQAAVPLASETHGGEDVAVFARGPQAHLVHGVQEETFVAHIMAFAGCVEPYTDCNLPAPATATSIPD
modifications: Synthetic polymer.
Duration of Diarrhea (score = 4): Days < 4 [1]: 299 | Duration of Diarrhea (score = 4): Days = 4 [1]: 1 | stool consistency throughout the course of the analysis ([1]; mouse, in vivo, 0.5 mg/kg): normal stool consistency | Duration of Diarrhea (score = 4): % Days = 4 [1]: 0.33% | recovery from the loose stools/diarrhea symptoms and associated weight loss ([3]; SYN-020 0.5 mg/kg PO BID plus 5-FU, compared with vehicle+5-FU, p<0.03): significantly faster recovery
